From US20170217914A1, “Novel Triarylethylene Compounds and Methods Using Same” (The Penn State Research Foundation, priority 2014, published 2017) come the findings set out here.

Series [1] deals with MCF-7 (ER-positive) human breast cancer cell line. Nature of the series: MTT cell viability assay, MCF-7 cells. The following applies: for anticancer activity in initial screening: 0.5-25 μM, 48 h (FIG. 3); for IC50: Homo sapiens; for cytotoxic activity: 72 h, versus Ospemifene and Tamoxifen.
Experimental: (§2) An MTT solution was added to each well and incubated for 3 h at 37° C. After 3 h, DMSO was added and the optical density was measured at 570 nm using a 96-well multiscanner (Dynex Technologies, MRX Revelation; Chantilly, Va., USA). Backgrounds were subtracted at 630 nm. IC50 values were calculated by non-linear regression analysis using Prism software.
(§3) The effects of novel triarylethylene derivatives on the cell viability were determined by the MTT uptake method using previously described methods (Kaur et al., 2014, Eur. J. Med. Chem. 86:211-218). Briefly, 3000 cells were incubated with various concentrations of compounds in triplicate in a 96-well plate for 72 h at 37° C. An MTT solution was added to each well and incubated for 3 h at 37° C. After 3 h, DMSO was added and the optical density was measured at 570 nm using a 96-well multiscanner (Dynex Technologies, MRX Revelation; Chantilly, Va., USA). Backgrounds were subtracted at 630 nm. IC50 values were calculated by non-linear regression analysis using Prism software.
The test system of series [2] is MDA-MB-231 (ER-negative) human breast cancer cell line. Nature of the series: MTT cell viability assay, MDA-MB-231 cells. Particulars: for anticancer activity in initial screening: 0.5-25 μM, 48 h (FIG. 3); for IC50: Homo sapiens; for cytotoxic activity: 72 h, versus Ospemifene and Tamoxifen. A general note: Formazan colour is commonly taken as a measure of viable cells.
Experimental: as §2, §3

The test system of series [3] is MMP-9. Nature of the series: Western blot, MMP-9 expression in breast cancer cells. The series is classed as cell-based, human. The following applies: MDA-MB-231 and MCF-7 cells, 24 h. How it is done: (§1) To determine the effect of novel triarylethylene derivatives on proteins involved in metastasis, and adhesion, whole-cell extracts were prepared by subjecting cells to lysis in RIPA buffer supplemented with protease and phosphatase inhibitor cocktails using previously described methods (Pandey et al., 2014, Exp. Hematol. 42:883-896). Lysates were spun at 15,000 rpm for 10 minutes to remove insoluble material. Supernatant were collected and kept at −80° C. Lysates were resolved by SDS-PAGE. After electrophoresis, the proteins were electro-transferred to PVDF membranes, blotted with the relevant antibodies, and detected by enhanced chemo-luminescence reagent.
For orientation: Immunoblotting shows a protein as a band on a membrane.

In series [4] the test system is c-Myc. Nature of the series: Western blot, c-Myc expression in breast cancer cells. Particulars: MDA-MB-231 and MCF-7 cells, 24 h. Format: cell-based, human. On the procedure: as §1
Series [5] relates to caveolin. Nature of the series: Western blot, caveolin expression in breast cancer cells. The series is classed as cell-based, human. Particulars: MDA-MB-231 and MCF-7 cells, 24 h. On the procedure: as §1
The mark [6] stands for this setting: MCF7, 48 h, read-out: MCF-7 (ER positive) IC50.
The mark [7] stands for this setting: MCF7, 96 h, read-out: MCF-7 (ER positive) IC50.
[8] abbreviates: MDA-MB-231, 48 h, read-out: MDA-MB-231 (ER− negative) IC50.
Setting [9] is: MDA-MB-231, 96 h, read-out: MDA-MB-231 (ER− negative) IC50.
The mark [10] stands for this setting: MCF7, 72 h, read-out: MCF-7 IC50.
The mark [11] stands for this setting: MDA-MB-231, 72 h, read-out: MDA-MB-231 IC50.

Like-named read-outs stand apart in the source and are kept apart here. Some results are limits rather than exact numbers.

For orientation: melting point means the temperature, or range, at which the solid turns liquid. For the compound `CS(=O)(=O)OCCOc1ccc(/C(=C(/CCCl)c2ccccc2)c2ccccc2)cc1` [Compound 2, (Z)-2-{4-(4-chloro-1,2-diphenylbut-1-enyl}phenoxy) ethyl methanesulfonate], the melting point fell in the range of 84 to 86 °C. In series [1], the “anticancer activity in initial screening” value was “inactive”. Further, in series [2], the “anticancer activity in initial screening” value was “inactive”.

`[N-]=[N+]=NCCOc1ccc(/C(=C(/CCCl)c2ccccc2)c2ccccc2)cc1` [Compound 3, (Z)-[1-{4-(2-azidoethoxy)phenyl}-4-chlorobut-1-ene-1,2-diyl]dibenzene]: the melting point fell in the range of 88 to 90 °C. Further, in series [1], the “anticancer activity in initial screening” value is “inactive”. Further, the “anticancer activity in initial screening” value in series [2] is “inactive”.

Broadly, the IC50 is the concentration at which inhibition is half-maximal. With `[N-]=[N+]=NCC/C(=C(\c1ccccc1)c1ccc(OCCO)cc1)c1ccccc1` [Compound 4, (Z)-2-{4-(4-azido-1,2-diphenylbut-1-enyl)phenoxy}ethanol], the melting point lay within 126 to 128 °C. Moreover, in series [1], the “anticancer activity in initial screening” value was “activity similar to Ospemifene”. In addition, in series [1] (setting [6]), the half-inhibitory concentration (IC50) was more than 100 µM. The IC50 in series [1] (setting [7]) was more than 100 µM. Moreover, in series [2] (setting [8]), the IC50 was more than 100 µM. Moreover, in series [2] (setting [9]), the IC50 is more than 100 µM.

Turning to `[N-]=[N+]=NCCOc1ccc(/C(=C(/CCN=[N+]=[N-])c2ccccc2)c2ccccc2)cc1` [Compound 5, (Z)-[4-azido-1-{4-(2-azidoethoxy)phenyl}but-1-ene-1,2-diyl]dibenzene], the “anticancer activity in initial screening” value in series [1] and in series [2] was “ineffective” in each case.

In the case of `O=C(NCC/C(=C(\c1ccccc1)c1ccc(OCCO)cc1)c1ccccc1)Oc1ccccc1` [Compound 8, (Z)-Phenyl 4-{4-(2-hydroxyethoxy)phenyl}-3,4-diphenylbut-3-enylcarbamate], the melting point was 121 to 123 °C. Further, the “anticancer activity in initial screening” value in series [1] is listed as “more potent than Ospemifene”. Besides, the IC50 in series [1] (setting [6]) is 76 µM. In addition, in series [1] (setting [7]), the IC50 was 50 µM. The “anticancer activity in initial screening” value in series [2] is listed as “more potent than Ospemifene”. In series [2] (setting [8]), the IC50 was more than 100 µM. In addition, the IC50 in series [2] (setting [9]) was 62.3 µM.

In turn, `COc1ccc(/C(=C(/CCCl)c2ccccc2)c2ccccc2)cc1` [Compound 11, (Z)-(4-Chloro-1-(4-methoxyphenyl)but-1-ene-1,2-diyl)dibenzene] displayed a melting point of 87 to 89 °C.

Take `COc1ccc(/C(=C(/CCN=[N+]=[N-])c2ccccc2)c2ccccc2)cc1` [Compound 12, (Z)-(4-Azido-1-(4-methoxyphenyl)but-1-ene-1,2-diyl)dibenzene]: the melting point is 126 to 128 °C.

In turn, `COc1ccc(/C(=C(/CCN)c2ccccc2)c2ccccc2)cc1` [Compound 13, (Z)-4-(4-Methoxyphenyl)-3,4-diphenylbut-3-en-1-amine] showed a melting point of 129 to 131 °C. For the same compound, the “expression of MMP-9” value in series [3] is “inhibited the expression”. Besides, the “expression of c-Myc” value in series [4] is reported as “inhibited the expression”. For the same compound, the expression of caveolin result in series [5] is recorded as “inhibited the expression”. Moreover, in series [1] (MTT, 0.5-100 μM, 48 h (FIG. 28B)), the “effectiveness versus Ospemifene and Tamoxifen” value is listed as “more effective”. Further, the “cytotoxic activity” value in series [1] (MTT) is on record as “remarkable activity”. The “effectiveness versus Ospemifene and Tamoxifen” value in series [2] (MTT, 0.5-100 μM, 48 h (FIG. 28A)) is “more effective”. In series [2] (MTT), the “cytotoxic activity” value is reported as “remarkable activity”.

`CCOC(=O)C(=O)NCC/C(=C(\c1ccccc1)c1ccc(OC)cc1)c1ccccc1` [Compound 15, (Z)-Ethyl-2-(4-(4-methoxyphenyl)-3,4-diphenylbut-3-enylamino)-2-oxoacetate]: the IC50 in series [1] (setting [10]) and in series [2] (setting [11]) was more than 50 µM each time.

As to `COc1ccc(/C(=C(/CCNC(=O)NCc2ccccc2)c2ccccc2)c2ccccc2)cc1` [Compound 16, (Z)-1-Benzyl-3-(4-(4-methoxyphenyl)-3,4-diphenylbut-3-enyl) urea], the melting point lay in the range of 158 to 160 °C. Moreover, the IC50 in series [1] (setting [10]) was more than 50 µM. In addition, the IC50 in series [2] (setting [11]) was more than 50 µM.

On to `COc1ccc(/C(=C(/CCNC(=O)NC2CCCCC2)c2ccccc2)c2ccccc2)cc1` [Compound 17, (Z)-1-Cyclohexyl-3-(4-(4-methoxyphenyl)-3,4-diphenylbut-3-enyl) urea], for which the melting point was in the range of 168 to 170 °C. Moreover, the IC50 in series [1] (setting [10]) was found to be 37.2 ± 13.7 µM. Also, the 50% inhibitory concentration (IC50) in series [2] (setting [11]) was more than 50 µM.

In turn, `COc1ccc(/C(=C(/CCNC(=O)N2CCOCC2)c2ccccc2)c2ccccc2)cc1` [Compound 18, (Z)—N-(4-(4-Methoxyphenyl)-3,4-diphenylbut-3-enyl)morpholine-4-carboxamide] returned a melting point of 139 to 141 °C. Moreover, the IC50 in series [1] (setting [10]) is more than 50 µM. Also, the IC50 in series [2] (setting [11]) worked out at 42.8 ± 12.2 µM.

Turning to `CCN(CC)C(=O)NCC/C(=C(\c1ccccc1)c1ccc(OC)cc1)c1ccccc1` [Compound 19, (Z)-1,1-Diethyl-3-(4-(4-methoxyphenyl)-3,4-diphenylbut-3-enyl)urea], the melting point lay in the range of 159 to 160 °C. Further, the IC50 in series [1] (setting [10]) was more than 50 µM. Moreover, the IC50 in series [2] (setting [11]) amounted to 40.7 ± 12.2 µM.

On to `COc1ccc(/C(=C(/CCNC(=O)N2CCCCC2)c2ccccc2)c2ccccc2)cc1` [Compound 20, (Z)—N-(4-(4-Methoxyphenyl)-3,4-diphenylbut-3-enyl)piperidine-1-carboxamide], for which the melting point lay in the range of 197 to 198 °C. Further, in series [1] (setting [10]), the concentration for half-maximal inhibition (IC50) is more than 50 µM. Moreover, the IC50 in series [2] (setting [11]) was more than 50 µM.

In the case of `COc1ccc(/C(=C(/CCNC(=O)N2CCCC2)c2ccccc2)c2ccccc2)cc1` [Compound 21, (Z)—N-(4-(4-Methoxyphenyl)-3,4-diphenylbut-3-enyl)pyrrolidine-1-carboxamide], the melting point lay in the range of 194.2 to 195.4 °C. In addition, the IC50 in series [1] (setting [10]) was more than 50 µM. Also, in series [2] (setting [11]), the half-maximal inhibitory concentration (IC50) is more than 50 µM.

Take `COc1ccc(/C(=C(/CCNC(=O)C(=O)NCc2ccccc2)c2ccccc2)c2ccccc2)cc1` [Compound 22, (Z)—N1-Benzyl-N2-(4-(4-methoxyphenyl)-3,4-diphenylbut-3-enyl)oxalamide]: the melting point lay within 169 to 172 °C. In addition, the “expression of MMP-9” value in series [3] is listed as “inhibited the expression”. Further, the “expression of c-Myc” value in series [4] was “inhibited the expression”. Moreover, the expression of caveolin result in series [5] is recorded as “did not inhibit the expression”. For the same compound, the IC50 in series [1] (setting [10]) was more than 50 µM. For the same compound, the IC50 in series [2] (setting [11]) turned out to be 11.5 ± 3.8 µM. The “cytotoxic activity” value in series [2] (MTT) is listed as “selectively cytotoxic”.

Consider `COc1ccc(/C(=C(/CCNC(=O)C(=O)NC2CCCCC2)c2ccccc2)c2ccccc2)cc1` [Compound 23, (Z)—N1-Cyclohexyl-N2-(4-(4-methoxyphenyl)-3,4-diphenylbut-3-enyl)oxalamide], for which the melting point fell in the range of 198 to 199 °C. Also, the “expression of MMP-9” value in series [3] is “inhibited the expression”. The “expression of c-Myc” value in series [4] was “inhibited the expression”. Besides, in series [5], the expression of caveolin result is “did not inhibit the expression”. In addition, in series [1] (setting [10]), the IC50 amounted to 12.1 ± 4.5 µM. The “cytotoxic activity” value in series [1] (MTT) was “remarkable activity”. For the same compound, the IC50 in series [2] (setting [11]) worked out at 12.2 ± 5.3 µM. Further, the “cytotoxic activity” value in series [2] (MTT) was “remarkable activity”.

For `COc1ccc(/C(=C(/CCNC(=O)C(=O)N2CCCC2)c2ccccc2)c2ccccc2)cc1` [Compound 24, (Z)—N-(4-(4-Methoxyphenyl)-3,4-diphenylbut-3-enyl)-2-oxo-2-(pyrrolidin-1-yl)acetamide], the melting point fell in the range of 151 to 152 °C. The IC50 in series [1] (setting [10]) is more than 50 µM. In series [2] (setting [11]), the IC50 is 48.6 ± 14.5 µM.

In turn, `COc1ccc(/C(=C(/CCNC(=O)C(=O)N2CCOCC2)c2ccccc2)c2ccccc2)cc1` [Compound 25, (Z)—N-(4-(4-Methoxyphenyl)-3,4-diphenylbut-3-enyl)-2-morpholino-2-oxoacetamide] yielded a melting point of 118.4 to 119.3 °C. Moreover, the IC50 in series [1] (setting [10]) stood at 43.4 ± 7.5 µM. Moreover, the IC50 in series [2] (setting [11]) stood at 20 ± 9.8 µM. Also, in series [2] (MTT), the “cytotoxic activity” value is “good activity”.

The compound `COc1ccc(/C(=C(/CCNC(=O)C(=O)N2CCCCC2)c2ccccc2)c2ccccc2)cc1` [Compound 26, (Z)—N-(4-(4-Methoxyphenyl)-3,4-diphenylbut-3-enyl)-2-oxo-2-(piperidin-1-yl)acetamide] showed a melting point of 125 to 127 °C. Moreover, in series [1] (setting [10]), the IC50 is more than 50 µM. Besides, the IC50 in series [2] (setting [11]) was more than 50 µM.

Regarding “(Z)-Ethyl-2-(4-(4-methoxyphenyl)-3,4-diphenylbut-3-enylamino)-2-oxoacetate [Compound 15]”, the “expression of MMP-9” value in series [3] was “modulated the expression”. The “cytotoxic activity” value in series [1] (MTT) and in series [2] (MTT) was “much more effective than the standards” in each case.

Consider “(Z)-Phenyl-4-(4-methoxyphenyl)-3,4-diphenylbut-3-enylcarbamate [Compound 14]”, for which the “expression of MMP-9” value in series [3] was “modulated the expression”. Besides, the “cytotoxic activity” value in series [1] (MTT) and in series [2] (MTT) was “much more effective than the standards” in each case.
